The results in this text go back to the Deep4Chem optical property database.

This data set is described as follows: photoluminescence quantum yield (fraction); solvent given as SMILES.

Structures are written as SMILES.

On to `CC1=CC(C)=[N+]2C1=Cc1c3ccccc3c(C#Cc3cccs3)n1[B-]2(F)F`, for which the photoluminescence quantum yield turned out to be 0.69 (in CCCCCC); 0.45 (in CCCCCCCCO); 0.55 (in CCOC(C)=O); 0.4 (in CN(C)C=O); 0.44 (in ClCCl).

Turning to `CCCCN1C(=O)c2ccc3c4c(Br)cc5c6c(ccc(c7c(Br)cc(c2c37)C1=O)c64)C(=O)N(CCCC)C5=O`, the photoluminescence quantum yield (in ClC(Cl)Cl) came out at 0.73.

Regarding `N#Cc1ccc2c(c1)CCc1nc(-c3ccc([N+](=O)[O-])cc3)c3c(c1-2)CCc1cc(C#N)ccc1-3`, the photoluminescence quantum yield runs as follows: (in C1CCOC1) 0.043; (in CC#N) 0.039; (in CCCCCC) 0.3; (in CCOC(C)=O) 0.015; (in CO) 0.01; (in CS(C)=O) 0.073. Further, the photoluminescence quantum yield came to 0.014 (in Cc1ccccc1) and 0.292 (in ClCCl).

For the compound `COc1ccc(-c2cc3c(o2)=CC2=C(C(F)(F)F)c4cc5oc(-c6ccc(OC)cc6)cc5n4[B-](F)(F)[N+]=32)cc1`, the photoluminescence quantum yield reads like this: (in C1CCOC1) 0.49; (in CC#N) 0.45; (in CCO) 0.37; (in CO) 0.32; (in Cc1ccccc1) 0.58; (in ClC(Cl)Cl) 0.56.

With `COc1ccc(/C=C/c2ccncn2)cc1`, the photoluminescence quantum yield (in ClCCl) is 0.01.

For the setting “in CC#N”, `Oc1ccccc1/C=N/c1cc2nc3ccccc3nc2cc1/N=C/c1ccccc1O` showed a photoluminescence quantum yield of 0.34.

For `O=S(=O)([O-])c1ccc(O)c2ccccc12`, the photoluminescence quantum yield by setting is: (in C1COCCO1) 0.14; (in CC#N) 0.17; (in CC(C)O) 0.2; (in CCCCO) 0.2; (in CCO) 0.18; (in CCOC(C)=O) 0.14. In addition, the photoluminescence quantum yield turned out to be 0.14 (in CN(C)C=O), 0.16 (in CO) and 0.25 (in CS(C)=O).

As to `Oc1cc(-c2cccs2)ccc1-c1nc2ccccc2s1`, the photoluminescence quantum yield was 0.1 (in CCO), 0.0937 (in ClCCl) and 0.01 (in O).

As for `COc1cc2cc(C#Cc3ccc(/C=C(\C#N)C(=O)O)cc3)c(=O)oc2cc1OC`, the photoluminescence quantum yield (in CC#N) was determined as 0.05.

Take `CC1=[N+]2C(=C(c3ccc(Br)cc3)c3ccc(C)n3[B-]2(F)F)C=C1c1cc2n(c1)[B-](F)(F)[N+]1=CC=CC1=C2c1c(C)cc(C)cc1C`: the photoluminescence quantum yield was found to be 0.85 (in C1CCCCC1) and 0.21 (in CCOC(C)=O).

Consider `CC(C)(C)c1ccc(-c2c(-c3ccc(-n4c5ccccc5c5ccccc54)cc3)c(C#N)c(-c3ccc(-n4c5ccccc5c5ccccc54)cc3)c(-c3ccc(C(C)(C)C)cc3)c2-c2ccc(C(C)(C)C)cc2)cc1`, for which the photoluminescence quantum yield (in C1CCOC1) was 0.803.

With `CN1/C(=C/C=C(/C=C/C2=[N+](C)c3ccccc3C2(C)C)c2ccccc2)C(C)(C)c2ccccc21`, the photoluminescence quantum yield came to 0.11 (in CCO), 0.09 (in CO) and 0.29 (in CS(C)=O).

Consider `C(=C/c1ccc(N(c2ccccc2)c2ccccc2)cc1)/c1ccc(N(c2ccccc2)c2ccccc2)cc1`, for which the photoluminescence quantum yield (in ClCCl) was found to be 0.99.

Take `CCN(CC)c1ccc2cc(/C=C/C(O)=C/C(C)=O)c(=O)oc2c1`: the photoluminescence quantum yield by setting is: (in CC#N) 0.36; (in CC(C)=O) 0.46; (in CCOC(C)=O) 0.5; (in CO) 0.35; (in CS(C)=O) 0.39; (in Cc1ccccc1) 0.66. For the same compound, the photoluminescence quantum yield is, setting by setting: (in ClC(Cl)Cl) 0.53; (in ClCCl) 0.52.

`COC(=O)c1cc(=O)n(C)c2cc(-c3cccc(OC)c3)sc12`: the photoluminescence quantum yield is, setting by setting: (in CC#N) 0.32; (in ClCCl) 0.48.

In turn, `C(=C\c1nc(/C=C/c2ccc(N(c3ccccc3)c3ccccc3)cc2)cc(/C=C/c2ccc(N(c3ccccc3)c3ccccc3)cc2)n1)/c1ccccc1` displayed a photoluminescence quantum yield (in ClCCl) of 0.78.

`CCOC(=O)c1cc(C(=O)OCC)c2cc(N)ccc2n1` showed a photoluminescence quantum yield (in CCO) of 0.4.

In the case of `CCCC1=Cc2nc1ccc1[nH]c(cc1CCC)c1nc(c(OCc3ccc(C(=O)O)cc3)cc3[nH]c2cc3CCC)C(CCC)=C1`, under “in Cc1ccccc1”, the photoluminescence quantum yield came to 0.21.

Consider `Cc1cc2ccccc2cc1C`, for which, under “in C1CCCCC1”, the photoluminescence quantum yield was found to be 0.56.

For the compound `O=c1oc2c(ccc3cc(O)ccc32)nc1-c1ccccc1`, the photoluminescence quantum yield (in c1ccccc1) was 0.604.

In the case of `CN(C)c1ccc(C2=Nc3sc4ccccc4[n+]3[B-](F)(F)O2)cc1`, the photoluminescence quantum yield came out at 0.78 (in C1CCOC1); 0.17 (in CC#N); 0.31 (in CC(C)=O); 0.84 (in Cc1ccccc1); 0.77 (in ClCCl).

For `COc1cccc(C2=CC3=C(c4c(C)cc(C)cc4C)c4cc(-c5cccc(OC)c5)c(-c5cccc(OC)c5)n4[B-](F)(F)[N+]3=C2c2cccc(OC)c2)c1`, the photoluminescence quantum yield (in C1CCCCC1) stood at 0.86; the photoluminescence quantum yield (in C1CCOC1) was 0.76; the photoluminescence quantum yield (in CC#N) stood at 0.65; the photoluminescence quantum yield (in Cc1ccccc1) amounted to 0.78; the photoluminescence quantum yield (in ClCCl) came out at 0.83.

`Cn1cc(-c2nc3ccccc3nc2C#Cc2ccccc2)c2ccccc21` gave a photoluminescence quantum yield (in ClCCl) of 0.16.

With `CCCCCCCc1cc2c(o1)=CC1=C3c4cc5oc(CCCCCCC)cc5n4[B-](F)(F)[n+]4nnn(c43)[B-](F)(F)[N+]=21`, the photoluminescence quantum yield was 0.34 (in C1CCOC1) and 0.39 (in ClCCl).

Compound `CN(C)c1ccc(C#Cc2cc(C#Cc3ccc(N(C)C)cc3)c3ccc4c(C#Cc5ccc(N(C)C)cc5)cc(C#Cc5ccc(N(C)C)cc5)c5ccc2c3c54)cc1` came in with a photoluminescence quantum yield (in ClCCl) of 0.6.

In the case of `c1ccc(-c2ccc(-c3ccc(N(c4ccccc4)c4ccccc4)cc3)c3nsnc23)cc1`, the photoluminescence quantum yield is 0.105 (in C1CCOC1), 0.01 (in CC(C)=O), 0.492 (in CCCCCC) and 0.201 (in CCOCC).

Take `O=C(O)CCCc1cc(C#Cc2ccccc2)c2ccc3c(C#Cc4ccccc4)cc(C#Cc4ccccc4)c4ccc1c2c34`: the photoluminescence quantum yield by setting is: (in CS(C)=O) 0.72; (in ClC(Cl)(Cl)Cl) 0.56.

For `CCOC(=O)C1=CN(c2ccccc2)C=C(C(=O)OCC)C1`, the photoluminescence quantum yield by setting is: (in C1CCOC1) 0.2; (in CO) 0.16.

For `CCCCn1c(-c2ccc(-c3nnc(-c4cccs4)o3)cc2)nc(-c2ccccc2)c1-c1ccccc1`, under “in ClCCl”, the photoluminescence quantum yield amounted to 0.33.

For the setting “in ClCCl”, `F[B-]12Oc3ccccc3-c3c4[n+]5c(c([n+]31)-c1ccccc1O2)-c1ccccc1O[B-]5(F)Oc1ccccc1-4` yielded a photoluminescence quantum yield of 0.29.

`Cc1ccc2c3ccc(C)cc3c3cc4c(C)cc(=O)oc4cc3c2c1`: for the setting “in ClC(Cl)Cl”, the photoluminescence quantum yield came out at 0.11.

Take `COC(=O)C(NC(=O)OC(C)(C)C)c1ccc2oc(-c3ccc(OC(=O)c4ccccc4)cc3O)nc2c1` (centres undefined): the photoluminescence quantum yield by setting is: (in CC1CCCCC1) 0.03; (in CC#N) 0.01; (in CO) 0.003.

On to `N#Cc1ccc(N)c2nonc12`, for which the photoluminescence quantum yield reads like this: (in C1COCCO1) 0.218; (in CC#N) 0.105; (in CCCCCC) 0.329; (in CCO) 0.059; (in Cc1ccccc1) 0.304; (in ClCCl) 0.195. Also, under “in O”, the photoluminescence quantum yield turned out to be 0.002.

Under “in C1CCCCC1”, `c1ccc(-c2cc3cccc[n+]3[b-]3c(-c4cccc5[b-]4[n+]4ccccc4cc5-c4ccccc4)cccc32)cc1` yielded a photoluminescence quantum yield of 0.02.

Take `CN(C)c1ccc(N2c3sc4ccccc4c3Sc3c2sc2ccccc32)cc1`: the photoluminescence quantum yield (in ClCCl) was determined as 0.19.

Consider `COc1ccc2c(c1)CCC1=C(C#Cc3ccc(Cl)cc3)O[B-](F)(F)[O+]=C12`, for which, where the note is “in ClCCl”, the photoluminescence quantum yield was found to be 0.72.

In turn, `Brc1cnc(-c2ccc(N(c3ccccc3)c3ccccc3)cc2)s1` registered a photoluminescence quantum yield (in CO) of 0.04.

On to `CC1(C)C2=[N+](CCCCCC(=O)NCCNC(=O)CCCCCN3/C(=C/C=C/C=C/C=C/2)C(C)(C)c2cc(S(=O)(=O)[O-])ccc23)c2ccc(S(=O)(=O)[O-])cc21`, for which the photoluminescence quantum yield runs as follows: (in CO) 0.57; (in O) 0.33.

With `CCN(CC)c1ccc2cc3c([o+]c2c1)/C(=C/Nc1ccccc1)CCC3`, the photoluminescence quantum yield (in CCO) was determined as 0.18, the photoluminescence quantum yield (in ClC(Cl)Cl) amounted to 0.22 and the photoluminescence quantum yield (in ClCCl) was determined as 0.31.

Regarding `CN(C)c1ccc(/C=C/c2cnc3ccccc3n2)cc1`, the photoluminescence quantum yield (in ClCCl) came out at 0.59.

As for `Cn1nc(-c2ccc(C#N)cc2)cc1-c1ccccc1`, the photoluminescence quantum yield (in ClCCl) is 0.7.

Turning to `O=C(c1ccccc1)c1cc2ccc1CCc1ccc(c(-c3ccc(N(c4ccccc4)c4ccccc4)cc3)c1)CC2`, the photoluminescence quantum yield (in c1cc(-n2c3ccccc3c3ccccc32)cc(-n2c3ccccc3c3ccccc32)c1) was found to be 0.15.

As for `Cc1ccc(/C=C/C(F)(F)F)c(N)c1`, under “in C1CCOC1”, the photoluminescence quantum yield came out at 0.62.

Take `COc1cccc2c1oc(=O)c1c(=O)oc3cc(O)ccc3c12`: the photoluminescence quantum yield (in ClCCl) was 0.004.

`F[B-]1(F)n2c(c3ccccc3c2-c2ccccc2)C(c2ccccc2)=C2c3ccccc3C(c3ccccc3)=[N+]21` returned a photoluminescence quantum yield (in ClCCl) of 0.93.

For the setting “in ClCCl”, `Cc1ccc(/C=C/c2nc(-c3cccc([N+](=O)[O-])c3)[nH]c2/C=C/c2ccc(C)cc2)cc1` had a photoluminescence quantum yield of 0.

In turn, `c1ccc(/C(=C(\c2ccccc2)c2ccccc2-c2ccc(-c3ccccc3)cc2)c2ccccc2-c2ccc(-c3ccccc3)cc2)cc1` yielded a photoluminescence quantum yield (in C1CCOC1) of 0.32.
